This is an account of results in US12122767B2, “Bicyclic heterocycles as FGFR inhibitors” (Incyte Corporation, priority 2019, dated 2024).

Structures are written as SMILES. A value given as a limit tells only on which side of the number the result lay.

The target of this assay is T1, FGFR3 enzyme (Millipore) (Homo sapiens, UniProt P22607).
T1 construct: purchased Millipore
Kind of assay: FGFR Enzymatic Assay (peptide phosphorylation, FRET). The assay is classed as biochemical. The note with it: pre-incubated for 4 hours; ATP 140 μM, peptide 500 nM. The procedure:
The inhibitor potency of the exemplified compounds was measured in an enzyme assay that measures peptide phosphorylation using FRET measurements to detect product formation. Inhibitors were serially diluted in DMSO and a volume of 0.5 μL was transferred to the wells of a 384-well plate. For FGFR3, a 10 μL volume of FGFR3 enzyme (Millipore) diluted in assay buffer (50 mM HEPES, 10 mM MgCl2, 1 mM EGTA, 0.01% Tween-20, 5 mM DTT, pH 7.5) was added to the plate and pre-incubated for a time between 5-10 minutes and up to 4 hours. Appropriate controls (enzyme blank and enzyme with no inhibitor) were included on the plate. The assay was initiated by the addition of a 10 μL solution containing biotinylated EQEDEPEGDYFEWLE peptide substrate (SEQ ID NO: 1) and ATP (final concentrations of 500 nM and 140 μM respectively) in assay buffer to the wells. The plate was incubated at 25° C. for 1 hr. The reactions were ended with the addition of 10 μL/well of quench solution (50 mM Tris, 150 mM NaCl, 0.5 mg/mL BSA, pH 7.8; 30 mM EDTA with Perkin Elmer Lance Reagents at 3.75 nM Eu-antibody PY20 and 180 nM APC-Streptavidin). The plate was allowed to equilibrate for ˜1 hr before scanning the wells on a PheraStar plate reader (BMG Labtech).
GraphPad prism3 was used to analyze the data. The IC50 values were derived by fitting the data to the equation for a sigmoidal dose-response with a variable slope. Y=Bottom+(Top-Bottom)/(1+10^((Log IC50−X)*HillSlope)) where X is the logarithm of concentration and Y is the response.
Table 1 provides IC50 data for compounds of the invention assayed in the FGFR Enzymatic Assay after dilution in assay buffer, added to the plate and pre-incubated for 4 hours.

T1 sequence (P22607 23-806): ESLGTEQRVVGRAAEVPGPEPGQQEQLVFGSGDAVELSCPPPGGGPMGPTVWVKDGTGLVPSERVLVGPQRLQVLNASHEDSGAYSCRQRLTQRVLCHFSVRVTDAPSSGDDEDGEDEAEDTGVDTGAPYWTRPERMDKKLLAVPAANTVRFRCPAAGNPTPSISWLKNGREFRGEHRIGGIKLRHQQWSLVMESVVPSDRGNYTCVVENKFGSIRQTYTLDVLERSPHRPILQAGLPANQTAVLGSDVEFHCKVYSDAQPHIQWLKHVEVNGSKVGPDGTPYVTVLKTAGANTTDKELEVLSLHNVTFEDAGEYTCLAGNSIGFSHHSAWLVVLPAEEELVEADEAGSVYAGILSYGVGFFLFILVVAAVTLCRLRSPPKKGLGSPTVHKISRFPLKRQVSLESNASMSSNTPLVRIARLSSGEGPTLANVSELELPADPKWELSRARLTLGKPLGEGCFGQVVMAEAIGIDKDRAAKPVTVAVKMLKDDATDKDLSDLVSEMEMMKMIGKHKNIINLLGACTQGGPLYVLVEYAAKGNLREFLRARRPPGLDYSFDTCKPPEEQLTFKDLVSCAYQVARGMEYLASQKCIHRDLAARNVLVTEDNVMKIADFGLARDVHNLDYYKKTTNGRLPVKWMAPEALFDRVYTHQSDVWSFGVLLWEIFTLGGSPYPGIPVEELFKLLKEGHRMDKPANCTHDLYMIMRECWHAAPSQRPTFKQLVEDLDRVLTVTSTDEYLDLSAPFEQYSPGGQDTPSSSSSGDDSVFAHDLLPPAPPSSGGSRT

As for `Cn1cc(-c2n[nH]c3cc(Cl)c(C(=O)Nc4c(F)cccc4Cl)cc23)cn1` [Example 16, 6-Chloro-N-(2-chloro-6-fluorophenyl)-3-(1-methyl-1H-pyrazol-4-yl)-1H-indazole-5-carboxamide], the IC50 was at least 200 nM.

Molecule `COc1cc2[nH]nc(-c3cnn(C)c3)c2cc1C(=O)Nc1c(C)cc(N(C)C)cc1C` [Example 29, N-(4-(Dimethylamino)-2,6-dimethylphenyl)-6-methoxy-3-(1-methyl-1H-pyrazol-4-yl)-1H-indazole-5-carboxamide] displayed a concentration for half-maximal inhibition (IC50) of 30 to 200 nM.
